pIC50: −log10 of the molar value. Where a name gives a salt, the structure may show the parent alone.
How the values were obtained:
human NHE3 = target: T1, human NHE3 (Homo sapiens, UniProt P48764); assay: NHE3 inhibition test (recovery of intracellular pH in cell line stably expressing human NHE3); type: cell-based; conditions: OK cells deficient in endogenous NHE stably expressing human NHE3; BCECF fluorescence, initial rate of pH recovery; read-out: human NHE3 inhibitory activity IC50
T1 sequence (P48764 26-834): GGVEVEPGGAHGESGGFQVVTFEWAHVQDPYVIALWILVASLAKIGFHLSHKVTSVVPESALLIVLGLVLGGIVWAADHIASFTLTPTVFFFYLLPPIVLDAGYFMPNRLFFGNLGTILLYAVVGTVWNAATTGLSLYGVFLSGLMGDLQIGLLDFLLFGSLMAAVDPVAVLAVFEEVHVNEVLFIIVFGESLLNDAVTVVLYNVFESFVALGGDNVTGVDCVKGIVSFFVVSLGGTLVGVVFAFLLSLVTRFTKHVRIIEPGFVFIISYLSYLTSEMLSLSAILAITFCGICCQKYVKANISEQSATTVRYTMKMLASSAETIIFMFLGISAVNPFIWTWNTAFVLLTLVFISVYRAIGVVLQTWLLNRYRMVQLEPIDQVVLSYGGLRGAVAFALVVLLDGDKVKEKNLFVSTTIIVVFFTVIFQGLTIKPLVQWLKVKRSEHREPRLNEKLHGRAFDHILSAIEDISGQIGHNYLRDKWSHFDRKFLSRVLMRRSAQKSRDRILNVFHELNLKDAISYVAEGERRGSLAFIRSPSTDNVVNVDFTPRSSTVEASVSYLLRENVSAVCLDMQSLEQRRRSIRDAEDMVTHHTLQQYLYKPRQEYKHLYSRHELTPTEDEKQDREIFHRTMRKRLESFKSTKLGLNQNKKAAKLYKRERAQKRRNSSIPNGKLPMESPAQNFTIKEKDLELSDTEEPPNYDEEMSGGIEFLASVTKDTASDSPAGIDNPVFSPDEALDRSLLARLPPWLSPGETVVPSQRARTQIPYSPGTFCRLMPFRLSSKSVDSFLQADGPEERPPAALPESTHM
How it was run: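 IC50 is the concentration halving the initial rate of Na-triggered intracellular pH recovery, tracked by BCECF fluorescence, in NH4Cl-acidified cells. Cells: NHE-deficient OK line stably transfected with human NHE3; compound added in Na-free pH 7.4 buffer.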

SD rat = assay: 32P-phosphate oral loading test using SD rat (phosphorus absorption inhibitory effect); type: in vivo; conditions: SD male rats, plasma radioactivity 30 minutes after 32P-phosphate solution, vs control group; for inhibition in vivo at 3 mg/kg: Rattus norvegicus, 0.5 h, read-out: Rate of inhibition of phosphate absorption
Protocol: Phosphorus Absorption Inhibitory Effect of the Compound of the Present Invention in ^32P-Phosphate Oral Loading Test Using SD Rat
8-week-old SD male rats (Japan SLC, Inc.) were used as laboratory animals. Each test compound was suspended or dissolved at a concentration of 0.2 mg/mL or 0.6 mg/mL in Japanese Pharmacopoeia water for injection (manufactured by Hikari Pharmaceutical Co., Ltd.) and orally administered to each rat at a dose of 5 ml/kg body weight. Japanese Pharmacopoeia water for injection was administered at the same dose as above to a control group. 5 minutes after the administration of the test compound or water for injection, a phosphate solution (1.3 mM NaH2PO4) containing 32P-phosphate (PerkinElmer Inc.) was administered thereto at a dose of 5 ml/kg. 30 minutes after the administration of the phosphate solution, blood was collected from the tail vein, and the blood sample was immediately mixed with EDTA-2K (manufactured by Dojindo Laboratories). Then, the mixture was centrifuged at 3000 rpm at 4° C. for 10 minutes to recover plasma.
The radioactivity in 100 μL of the plasma was measured using a liquid scintillation counter and used as a phosphate absorption count. The radioactivity in the plasma of the control group was used as a control, and the rate of inhibition of phosphate absorption was determined according to the following expression: Rate of inhibition of phosphate absorption (%)=(1−Phosphate absorption count of the test compound administration group/Phosphate absorption count of the control group)×100 (2) Results

SMILES	pIC50 (human NHE3)	inhibition in vivo at 3 mg/kg (SD rat; oral dose 3 mg/kg)	Rate of inhibition of phosphate absorption (SD rat; oral dose 1 mg/kg)	Rate of inhibition of phosphate absorption (SD rat; oral dose 3 mg/kg)
CN1Cc2c(Cl)cc(Cl)cc2[C@H](c2cccc(-c3nnn(CCOCCOCCNC(=O)NCCCCNC(=O)NCCOCCOCCn4nnc(-c5cccc([C@@H]6CN(C)Cc7c(Cl)cc(Cl)cc76)c5)n4)n3)c2)C1 [Example 7-9, 1,1′-Butane-1,4-diylbis[3-(2-{2-[2-(5-{3-[(4S)-6,8-dichloro-2-methyl-1,2,3,4-tetrahydroisoquinolin-4-yl]phenyl}-2H-tetrazol-2-yl)ethoxy]ethoxy}ethyl)urea]hydrochloride]	8.14	22%	–	–
CN1Cc2c(Cl)cc(Cl)cc2[C@H](c2cccc(-c3nnn(CCOCCOCCNC(=O)Nc4ccc(NC(=O)NCCOCCOCCn5nnc(-c6cccc([C@@H]7CN(C)Cc8c(Cl)cc(Cl)cc87)c6)n5)cc4)n3)c2)C1 [Example 7-10, 1,1′-Benzene-1,4-diylbis[3-(2-{2-[2-(5-{3-[(4S)-6,8-dichloro-2-methyl-1,2,3,4-tetrahydroisoquinolin-4-yl]phenyl}-2H-tetrazol-2-yl)ethoxy]ethoxy}ethyl)urea]hydrochloride]	7.86	35%	–	–
CN1Cc2c(Cl)cc(Cl)cc2[C@H](c2cccc(-c3ccc(C(=O)NCCOCCOCCNC(=O)NCCCCNC(=O)NCCOCCOCCNC(=O)c4ccc(-c5cccc([C@@H]6CN(C)Cc7c(Cl)cc(Cl)cc76)c5)cn4)nc3)c2)C1 [Example 7-18, N,N′-(10,17-Dioxo-3,6,21,24-tetraoxa-9,11,16,18-tetraazahexacosane-1,26-diyl)bis(5-{3-[(4S)-6,8-dichloro-2-methyl-1,2,3,4-tetrahydroisoquinolin-4-yl]phenyl}pyridine-2-carboxamide) hydrochloride]	8.25	49%	–	–
CN1Cc2c(Cl)cc(Cl)cc2[C@H](c2cccc(-c3cn(CCOCCOCCOCCNC(=O)Nc4ccc(NC(=O)NCCOCCOCCOCCn5cc(-c6cccc([C@@H]7CN(C)Cc8c(Cl)cc(Cl)cc87)c6)nn5)cc4)nn3)c2)C1 [Example 7-24, 1,1′-Benzene-1,4-diylbis{3-[2-(2-{2-[2-(4-{3-[(4S)-6,8-dichloro-2-methyl-1,2,3,4-tetrahydroisoquinolin-4-yl]phenyl}-1H-1,2,3-triazol-1-yl)ethoxy]ethoxy}ethoxy)ethyl]urea}hydrochloride]	8.25	31%	–	–
CN1Cc2c(Cl)cc(Cl)cc2[C@H](c2cccc(-c3cn(CCOCCOCCOCCOCCOCCNC(=O)NCCCCNC(=O)NCCOCCOCCOCCOCCOCCn4cc(-c5cccc([C@@H]6CN(C)Cc7c(Cl)cc(Cl)cc76)c5)nn4)nn3)c2)C1.Cl [Example 7-39, 1,1′-Butane-1,4-diylbis {3-[17-(4-{3-[(4S)-6,8-dichloro-2-methyl-1,2,3,4-tetrahydroisoquinolin-4-yl]phenyl}-1H-1,2,3-triazol-1-yl)-3,6,9,12,15-pentaoxaheptadec-1-yl]urea}hydrochloride]	8.49	–	38%	–
CN1Cc2c(Cl)cc(Cl)cc2[C@H](c2cccc(-c3cn(CCOCCOCCOCCNC(=O)NCCN(CCCCN(CCNC(=O)NCCOCCOCCOCCn4cc(-c5cccc([C@@H]6CN(C)Cc7c(Cl)cc(Cl)cc76)c5)nn4)C(N)=O)C(N)=O)nn3)c2)C1.O=CO [Example 7-42, 3,3′-Butane-1,4-diylbis {3-[16-(4-{3-[(4S)-6,8-dichloro-2-methyl-1,2,3,4-tetrahydroisoquinolin-4-yl]phenyl}-1H-1,2,3-triazol-1-yl)-4-oxo-8,11,14-trioxa-3,5-diazahexadec-1-yl]urea}formate]	8.26	–	–	29%

More lines, main results first:

pIC50 (human NHE3)	SMILES	inhibition in vivo at 3 mg/kg (SD rat; oral dose 3 mg/kg)	Rate of inhibition of phosphate absorption (SD rat; oral dose 1 mg/kg)	Rate of inhibition of phosphate absorption (SD rat; oral dose 3 mg/kg)
8.09	CN1Cc2c(Cl)cc(Cl)cc2[C@H](c2cccc(-c3cn(CCOCCOCCNC(=O)NCCCCNC(=O)NCCOCCOCCn4cnc(-c5cccc([C@@H]6CN(C)Cc7c(Cl)cc(Cl)cc76)c5)c4)cn3)c2)C1 [Example 7-15, 1,1′-Butane-1,4-diylbis[3-(2-{2-[2-(4-{3-[(4S)-6,8-dichloro-2-methyl-1,2,3,4-tetrahydroisoquinolin-4-yl]phenyl}-1H-imidazol-1-yl)ethoxy]ethoxy}ethyl)urea]hydrochloride]	36%	–	–
7.78	CN1Cc2c(Cl)cc(Cl)cc2[C@H](c2cccc(-c3cc(NCCOCCOCCOCCNC(=O)Nc4ccc(NC(=O)NCCOCCOCCOCCNc5cc(-c6cccc([C@@H]7CN(C)Cc8c(Cl)cc(Cl)cc87)c6)ncn5)cc4)ncn3)c2)C1 [Example 7-16, 1,1′-Benzene-1,4-diylbis(3-{2-[2-(2-{2-[(6-{3-[(4S)-6,8-dichloro-2-methyl-1,2,3,4-tetrahydroisoquinolin-4-yl]phenyl}pyrimidin-4-yl)amino]ethoxy}ethoxy)ethoxy]ethyl}urea) hydrochloride]	34%	–	–
7.75	CN1Cc2c(Cl)cc(Cl)cc2[C@H](c2cccc(-c3cc(NCCOCCOCCOCCNC(=O)NCCCCNC(=O)NCCOCCOCCOCCNc4cnnc(-c5cccc([C@@H]6CN(C)Cc7c(Cl)cc(Cl)cc76)c5)c4)cnn3)c2)C1 [Example 7-19, 1,1′-Butane-1,4-diylbis(3-{2-[2-(2-{2-[(6-{3-[(4S)-6,8-dichloro-2-methyl-1,2,3,4-tetrahydroisoquinolin-4-yl]phenyl}pyridazin-4-yl)amino]ethoxy}ethoxy)ethoxy]ethyl}urea) hexahydrochloride]	19%	–	–
8.16	CN1Cc2c(Cl)cc(Cl)cc2[C@H](c2cccc(-c3nnn(CCOCCOCCOCCOCCNC(=O)NCCCCNC(=O)NCCOCCOCCOCCOCCn4nnc(-c5cccc([C@@H]6CN(C)Cc7c(Cl)cc(Cl)cc76)c5)n4)n3)c2)C1 [Example 7-29, 1,1′-Butane-1,4-diylbis {3-[14-(5-{3-[(4S)-6,8-dichloro-2-methyl-1,2,3,4-tetrahydroisoquinolin-4-yl]phenyl}-2H-tetrazol-2-yl)-3,6,9,12-tetraoxatetradec-1-yl]urea}hydrochloride]	10%	–	–
8.55	CN1Cc2c(Cl)cc(Cl)cc2[C@H](c2cccc(-c3nnn(CCOCCOCCOCCNC(=O)NCCCCNC(=O)NCCOCCOCCOCCn4nnc(-c5cccc([C@@H]6CN(C)Cc7c(Cl)cc(Cl)cc76)c5)n4)n3)c2)C1 [Example 7-30, 1,1′-Butane-1,4-diylbis {3-[2-(2-{2-[2-(5-{3-[(4S)-6,8-dichloro-2-methyl-1,2,3,4-tetrahydroisoquinolin-4-yl]phenyl}-2H-tetrazol-2-yl)ethoxy]ethoxy}ethoxy)ethyl]urea}hydrochloride]	28%	–	–
8.07	CN1Cc2c(Cl)cc(Cl)cc2[C@H](c2cccc(-c3cncc(NCCOCCOCCOCCNC(=O)NCCCCNC(=O)NCCOCCOCCOCCNc4cncc(-c5cccc([C@@H]6CN(C)Cc7c(Cl)cc(Cl)cc76)c5)n4)n3)c2)C1 [Example 7-33, 1,1′-Butane-1,4-diylbis(3-{2-[2-(2-{2-[(6-{3-[(4S)-6,8-dichloro-2-methyl-1,2,3,4-tetrahydroisoquinolin-4-yl]phenyl}pyrazin-2-yl)amino]ethoxy}ethoxy)ethoxy]ethyl}urea) hexahydrochloride]	-1%	–	–
7.96	CN1Cc2c(Cl)cc(Cl)cc2[C@H](c2cccc(-c3cc(NCCOCCOCCOCCNC(=O)NCCCCNC(=O)NCCOCCOCCOCCNc4cc(-c5cccc([C@@H]6CN(C)Cc7c(Cl)cc(Cl)cc76)c5)ncn4)ncn3)c2)C1 [Example 7-40, 1,1′-Butane-1,4-diylbis(3-{2-[2-(2-{2-[(6-{3-[(4S)-6,8-dichloro-2-methyl-1,2,3,4-tetrahydroisoquinolin-4-yl]phenyl}pyrimidin-4-yl)amino]ethoxy}ethoxy)ethoxy]ethyl}urea) trifluoroacetate]	28%	–	–
